These results are taken from article PMC12615753, “Glutathione as a taste modulator: molecular mechanisms of interaction with umami and sweet taste receptors” (Food Chemistry: Molecular Sciences, 2025).

Molecules are shown by their SMILES.

The experiment addresses T1, hTAS1R1 Q278Y/rTAS1R3 (Homo sapiens, UniProt Q7RTX1, Q278Y).
T1 construct: expressed in transfected cells; host or cells: HEK293T/17 (ATCC CRL-11268)
T1 sequence (Q7RTX1 21-841 Q278Y): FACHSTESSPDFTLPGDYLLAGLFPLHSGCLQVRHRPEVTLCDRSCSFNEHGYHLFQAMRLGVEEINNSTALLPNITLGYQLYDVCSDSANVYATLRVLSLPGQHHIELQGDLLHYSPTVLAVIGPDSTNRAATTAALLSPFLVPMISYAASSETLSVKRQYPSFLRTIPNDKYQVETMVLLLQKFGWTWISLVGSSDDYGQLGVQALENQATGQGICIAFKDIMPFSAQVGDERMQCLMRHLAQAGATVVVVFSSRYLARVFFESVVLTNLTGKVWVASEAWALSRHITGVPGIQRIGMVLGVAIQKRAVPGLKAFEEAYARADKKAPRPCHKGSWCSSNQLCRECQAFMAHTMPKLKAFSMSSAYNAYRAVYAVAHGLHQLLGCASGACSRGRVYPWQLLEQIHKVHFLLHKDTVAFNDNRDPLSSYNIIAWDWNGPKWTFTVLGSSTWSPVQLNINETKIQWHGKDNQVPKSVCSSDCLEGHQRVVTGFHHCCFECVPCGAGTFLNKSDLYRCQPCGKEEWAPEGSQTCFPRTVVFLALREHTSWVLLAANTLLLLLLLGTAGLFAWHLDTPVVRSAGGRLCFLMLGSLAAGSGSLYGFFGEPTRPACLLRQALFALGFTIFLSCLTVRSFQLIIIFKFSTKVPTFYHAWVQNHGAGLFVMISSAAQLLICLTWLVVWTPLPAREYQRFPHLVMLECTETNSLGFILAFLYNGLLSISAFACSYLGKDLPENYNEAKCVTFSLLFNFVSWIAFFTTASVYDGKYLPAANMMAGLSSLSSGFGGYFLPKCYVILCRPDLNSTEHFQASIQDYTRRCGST
T1 sequence (Q923K1 21-858 partner): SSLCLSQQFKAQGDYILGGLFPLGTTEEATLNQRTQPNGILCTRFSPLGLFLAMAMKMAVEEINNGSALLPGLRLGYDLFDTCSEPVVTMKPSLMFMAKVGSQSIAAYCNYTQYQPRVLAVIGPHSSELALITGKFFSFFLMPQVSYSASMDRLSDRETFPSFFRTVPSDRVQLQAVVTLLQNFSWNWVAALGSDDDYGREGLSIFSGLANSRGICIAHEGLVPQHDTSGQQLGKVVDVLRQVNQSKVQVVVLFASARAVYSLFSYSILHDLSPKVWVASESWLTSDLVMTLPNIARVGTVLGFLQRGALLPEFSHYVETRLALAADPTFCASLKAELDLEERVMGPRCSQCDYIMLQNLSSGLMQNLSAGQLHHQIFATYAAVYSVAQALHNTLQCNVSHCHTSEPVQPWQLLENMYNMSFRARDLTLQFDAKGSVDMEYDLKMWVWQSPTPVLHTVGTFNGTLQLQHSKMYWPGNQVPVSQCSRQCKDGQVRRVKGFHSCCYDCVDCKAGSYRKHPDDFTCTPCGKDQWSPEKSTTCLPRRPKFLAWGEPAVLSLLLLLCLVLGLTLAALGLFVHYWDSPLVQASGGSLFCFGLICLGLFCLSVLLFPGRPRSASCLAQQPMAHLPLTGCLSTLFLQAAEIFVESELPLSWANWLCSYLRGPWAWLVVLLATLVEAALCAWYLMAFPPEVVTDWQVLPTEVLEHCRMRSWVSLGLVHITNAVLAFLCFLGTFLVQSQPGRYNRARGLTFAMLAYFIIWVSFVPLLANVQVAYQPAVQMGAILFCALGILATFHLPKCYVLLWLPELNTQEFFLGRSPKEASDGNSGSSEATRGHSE
The experiment is described as follows: Calcium assay, hTAS1R1 mutant co-expressed with rTAS1R3. Type of experiment: cell-based, rat.

Turning to `N[C@@H](CCC(=O)N[C@@H](CS)C(=O)NCC(=O)O)C(=O)O` [GSH, γ-L-glutamyl-L-cysteinyl-glycine], the EC50 amounted to 3.96 ± 1.76 mM. Besides, the “effect of the added compound (1 mM) on the response to L-Glu” value (Q278Y) is given as “synergy was observed”. Further, for the setting “Q278Y, GSH”, the “Max ∆F/F0” value worked out at 0.47 ± 0.07 and the “R1 = mutant EC50/WT EC50” value worked out at 1.6.
In the case of `CCCC(CCC)NC(=O)c1ccc2c(c1)OCO2` [S807, N-(heptan-4-yl)benzo[d][1,3]dioxole-5-carboxamide, reference compound], the “response to the agonist alone, vs WT” value (Q278Y) is given as “strongly affected”.

The EC50 is the midpoint of the concentration-response curve.
